Calls of active or inactive are those of the source. The rule behind the calls is not given here.

For orientation: AUC means the area under the concentration-time curve, a measure of exposure. High values mean more exposure, low ones less exposure. One may read the Cmax as the peak of the concentration-time curve. What is called IC50 is the concentration that gives 50% inhibition. A high value points to lower potency. As usually defined, the bioavailability is the share of a dose that reaches the circulation, judged against a reference dose that is usually intravenous. The low end stands for little systemic uptake, the high end for much systemic uptake.

Data set [1] can be described thus: Clearance in C57BL/6 mouse at 2 mg/kg, po or 1 mg/kg, iv by LC-MS/MS analysis. It is filed as ADME, organism-based. To be noted: in vivo.
Data set [2] can be described thus: AUC in Sprague-Dawley rat at 2 mg/kg, po administered through cassette dosing by LC-MS/MS analysis. It counts as ADME, organism-based. To be noted: in vivo.
Data set [3] can be described thus: Cmax in Sprague-Dawley rat at 2 mg/kg, po administered through cassette dosing as by LC-MS/MS analysis. It counts as ADME, organism-based. Details: dose 2 mg/kg, route oral. The note with it: in vivo.
The target of data set [4] is Nucleotide-binding oligomerization domain-containing protein 2 (Homo sapiens) (UniProt Q9HC29). In words: Activation of NOD2 in human monocytes assessed as inhibition of MDP-stimulated TNF-alpha production preincubated for 30 mins prior to MDP stimulation measured after 6 hrs by immunoassay. It counts as cell-based.
Nucleotide-binding oligomerization domain-containing protein 2 (Homo sapiens), sequence (Q9HC29 whole entry, the tested form may be a part): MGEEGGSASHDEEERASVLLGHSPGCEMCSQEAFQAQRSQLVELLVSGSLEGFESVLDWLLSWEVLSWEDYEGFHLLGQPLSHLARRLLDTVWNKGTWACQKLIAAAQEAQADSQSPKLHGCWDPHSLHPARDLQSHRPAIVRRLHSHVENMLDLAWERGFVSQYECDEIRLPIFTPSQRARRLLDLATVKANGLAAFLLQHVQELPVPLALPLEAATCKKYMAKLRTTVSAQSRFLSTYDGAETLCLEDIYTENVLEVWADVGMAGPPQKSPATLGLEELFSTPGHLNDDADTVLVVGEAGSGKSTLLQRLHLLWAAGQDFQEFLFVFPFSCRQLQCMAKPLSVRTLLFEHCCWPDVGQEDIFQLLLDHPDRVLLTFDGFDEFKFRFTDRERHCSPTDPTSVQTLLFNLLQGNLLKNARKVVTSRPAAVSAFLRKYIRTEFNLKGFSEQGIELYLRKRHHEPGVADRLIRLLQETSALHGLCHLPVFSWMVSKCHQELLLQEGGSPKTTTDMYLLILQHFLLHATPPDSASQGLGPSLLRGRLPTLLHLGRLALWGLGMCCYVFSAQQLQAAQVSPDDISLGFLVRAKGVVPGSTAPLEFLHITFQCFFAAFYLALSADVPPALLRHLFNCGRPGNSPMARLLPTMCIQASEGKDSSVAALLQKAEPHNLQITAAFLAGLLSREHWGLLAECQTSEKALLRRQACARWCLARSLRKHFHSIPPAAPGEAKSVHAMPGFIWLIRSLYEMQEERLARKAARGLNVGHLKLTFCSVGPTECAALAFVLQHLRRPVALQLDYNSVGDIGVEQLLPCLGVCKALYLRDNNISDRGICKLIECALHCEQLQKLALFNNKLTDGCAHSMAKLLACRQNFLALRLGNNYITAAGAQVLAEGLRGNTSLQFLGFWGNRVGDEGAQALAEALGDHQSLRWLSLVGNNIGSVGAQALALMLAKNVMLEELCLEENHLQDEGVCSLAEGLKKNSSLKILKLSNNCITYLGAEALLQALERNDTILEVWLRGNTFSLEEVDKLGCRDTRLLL
Data set [5] deals with Receptor-interacting serine/threonine-protein kinase 2 (Rattus norvegicus, UniProt G3V783). In words: Inhibition of rat RIPK2 preincubated for 10 mins followed by addition of fluorescent-labeled 2-Methyl-5-(2-propen-l-yloxy)aniline measured after 10 mins by fluorescence polarization assay. For orientation: Fluorescence polarisation rises when a labelled molecule tumbles more slowly, as on binding a larger partner.
Receptor-interacting serine/threonine-protein kinase 2, sequence (G3V783 whole entry): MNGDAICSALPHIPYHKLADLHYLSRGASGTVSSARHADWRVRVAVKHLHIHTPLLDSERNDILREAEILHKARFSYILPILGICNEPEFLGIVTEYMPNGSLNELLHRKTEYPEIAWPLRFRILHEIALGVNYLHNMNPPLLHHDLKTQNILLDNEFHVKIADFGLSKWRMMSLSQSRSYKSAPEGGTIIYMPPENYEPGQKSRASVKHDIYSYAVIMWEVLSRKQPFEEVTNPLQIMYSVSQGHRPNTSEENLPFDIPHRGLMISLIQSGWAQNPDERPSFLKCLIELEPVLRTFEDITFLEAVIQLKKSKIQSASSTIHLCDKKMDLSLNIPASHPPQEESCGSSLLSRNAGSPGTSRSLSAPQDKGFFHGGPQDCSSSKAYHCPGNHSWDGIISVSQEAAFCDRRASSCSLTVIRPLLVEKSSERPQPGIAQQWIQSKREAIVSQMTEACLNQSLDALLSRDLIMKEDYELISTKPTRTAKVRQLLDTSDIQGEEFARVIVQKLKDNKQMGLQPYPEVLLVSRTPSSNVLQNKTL

A further data set is filed under the species Homo sapiens. In words: Activation of TFNR in human monocytes assessed as inhibition of TNF-alpha-stimulated IL8 production preincubated for 30 mins prior to TNF-alpha stimulation at 1 uM measured after 6 hrs by immunoassay. It counts as cell-based.
In data set [6] the target is T1, Interleukin-1 receptor type 1 (Homo sapiens) (UniProt P14778).
T1 sequence (whole entry): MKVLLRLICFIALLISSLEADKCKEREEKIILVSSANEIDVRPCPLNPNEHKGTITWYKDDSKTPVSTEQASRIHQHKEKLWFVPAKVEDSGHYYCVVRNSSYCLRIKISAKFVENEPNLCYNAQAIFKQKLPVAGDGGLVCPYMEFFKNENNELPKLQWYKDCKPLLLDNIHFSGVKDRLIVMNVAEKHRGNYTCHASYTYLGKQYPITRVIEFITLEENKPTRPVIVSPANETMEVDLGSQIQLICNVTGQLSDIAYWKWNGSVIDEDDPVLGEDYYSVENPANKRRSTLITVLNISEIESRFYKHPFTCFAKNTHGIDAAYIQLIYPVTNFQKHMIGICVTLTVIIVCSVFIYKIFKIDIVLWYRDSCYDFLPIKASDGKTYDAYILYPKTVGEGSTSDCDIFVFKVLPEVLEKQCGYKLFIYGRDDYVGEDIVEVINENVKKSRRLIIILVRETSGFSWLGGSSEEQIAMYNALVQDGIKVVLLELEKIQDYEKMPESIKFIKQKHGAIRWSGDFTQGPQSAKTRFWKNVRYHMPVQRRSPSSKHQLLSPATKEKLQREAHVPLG
In words: Activation of IL-1R in human monocytes assessed as inhibition of IL-1beta-stimulated TNF-alpha production preincubated for 30 mins prior to IL-1beta stimulation at 1 uM measured after 6 hrs by immunoassay. It counts as cell-based.

The subject of a further data set is Mus musculus. The data set is described as follows: Antiinflammatory activity in C57Bl/6 mouse assessed as inhibition of LPS-induced serum KC level at 10 mg/kg, po for 15 mins prior to LPS-challenge measured after 2.5 hrs. It is filed as functional, organism-based.
Data set [7] relates to Intestinal mucosa. In words: Inhibition of TNFalpha production in intestinal mucosa derived from Crohn's disease patient measured after 24 hrs by sandwich ELISA. It counts as functional, tissue-based. To be noted: Homo sapiens. In general terms: ELISA stands for enzyme-linked immunosorbent assay.
A short description of data set [8]: Oral bioavailability in C57BL/6 mouse at 2 mg/kg by LC-MS/MS analysis. It counts as ADME, organism-based. To be noted: in vivo.
Data set [9] can be described thus: Oral bioavailability in Sprague-Dawley rat at 2 mg/kg by LC-MS/MS analysis. It is filed as ADME, organism-based. To be noted: in vivo.
The test system of data set [10] is Intestinal mucosa. In words: Inhibition of IL6 production in intestinal mucosa derived from Crohn's disease patient measured after 24 hrs by sandwich ELISA. It counts as functional, tissue-based. To be noted: Homo sapiens.
In data set [11] the target is T2, Nucleotide-binding oligomerization domain-containing protein 1 (Homo sapiens) (UniProt Q9Y239).
T2 sequence (whole entry): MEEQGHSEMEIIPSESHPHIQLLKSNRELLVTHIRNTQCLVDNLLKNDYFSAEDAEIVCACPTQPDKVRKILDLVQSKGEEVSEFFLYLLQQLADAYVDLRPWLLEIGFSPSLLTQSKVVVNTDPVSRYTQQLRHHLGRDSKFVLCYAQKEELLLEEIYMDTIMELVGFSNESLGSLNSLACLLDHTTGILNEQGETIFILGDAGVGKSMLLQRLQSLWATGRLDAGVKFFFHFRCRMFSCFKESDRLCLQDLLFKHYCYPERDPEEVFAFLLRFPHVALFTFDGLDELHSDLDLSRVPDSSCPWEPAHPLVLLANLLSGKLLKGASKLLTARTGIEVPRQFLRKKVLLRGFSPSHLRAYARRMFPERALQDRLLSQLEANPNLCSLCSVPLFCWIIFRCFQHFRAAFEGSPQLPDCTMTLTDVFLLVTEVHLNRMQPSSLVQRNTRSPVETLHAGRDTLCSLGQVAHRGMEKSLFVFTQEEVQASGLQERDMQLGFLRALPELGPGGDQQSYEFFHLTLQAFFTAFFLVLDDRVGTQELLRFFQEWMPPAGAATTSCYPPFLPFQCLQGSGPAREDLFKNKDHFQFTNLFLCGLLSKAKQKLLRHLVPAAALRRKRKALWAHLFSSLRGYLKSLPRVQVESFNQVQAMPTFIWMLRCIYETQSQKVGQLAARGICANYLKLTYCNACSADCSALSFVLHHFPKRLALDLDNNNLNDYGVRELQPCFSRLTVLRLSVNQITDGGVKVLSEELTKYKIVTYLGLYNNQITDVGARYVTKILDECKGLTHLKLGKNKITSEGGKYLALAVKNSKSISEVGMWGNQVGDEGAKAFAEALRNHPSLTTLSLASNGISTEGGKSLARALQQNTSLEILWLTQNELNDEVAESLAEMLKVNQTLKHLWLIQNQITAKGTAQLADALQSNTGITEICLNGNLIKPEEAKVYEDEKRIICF
In words: Activation of NOD1 in human monocytes assessed as inhibition of ieDAP-stimulated IL8 production preincubated for 30 mins prior to ieDAP stimulation at 1 uM measured after 6 hrs by immunoassay. It is filed as cell-based.

Take `CC(C)(C)S(=O)(=O)c1ccc2nccc(Nc3n[nH]c4ccc(F)cc34)c2c1`: the clearance in [1] worked out at 13 mL/min/kg. This compound also had an AUC in [2] of 980 ng·h/mL. In [3], this compound yielded a Cmax of 260 ng/mL. For the same compound, the inhibition entry (in [4]; in the data set filed under Homo sapiens; in [6]; in data set [11]) was “Active” each time. The compound further came in with an IC50 in data set [5] of 2 nM. The inhibition result in the data set with Mus musculus is “inactive”. Moreover, the inhibition entry in the data set on Intestinal mucosa [7] and with Intestinal mucosa [10] was “Dose-dependent effect” throughout. Further, the values for the bioavailability in [8] and in data set [9] were 34% and 39%, respectively.

Source of the values: ChEMBL document CHEMBL3822396 (J Med Chem, 2016).
